For this test, the target named is T1, human CTPS1 (Homo sapiens, UniProt P17812).
T1 sequence (P17812 1-591): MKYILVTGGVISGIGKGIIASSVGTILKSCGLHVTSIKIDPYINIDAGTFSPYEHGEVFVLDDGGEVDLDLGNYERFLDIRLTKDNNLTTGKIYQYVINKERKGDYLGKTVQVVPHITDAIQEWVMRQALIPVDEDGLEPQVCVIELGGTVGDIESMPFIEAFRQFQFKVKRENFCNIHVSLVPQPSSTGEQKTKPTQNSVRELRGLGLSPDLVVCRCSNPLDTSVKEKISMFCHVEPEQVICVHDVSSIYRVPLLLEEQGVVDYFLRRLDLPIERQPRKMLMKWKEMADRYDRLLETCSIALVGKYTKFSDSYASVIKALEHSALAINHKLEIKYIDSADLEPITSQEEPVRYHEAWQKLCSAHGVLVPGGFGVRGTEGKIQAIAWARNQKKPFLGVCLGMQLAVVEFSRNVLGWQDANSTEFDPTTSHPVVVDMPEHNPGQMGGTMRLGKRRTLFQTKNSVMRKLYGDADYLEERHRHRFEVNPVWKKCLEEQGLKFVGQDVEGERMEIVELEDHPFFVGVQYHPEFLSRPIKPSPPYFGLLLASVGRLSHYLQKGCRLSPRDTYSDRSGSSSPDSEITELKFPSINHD
The experiment in a line: ADP-Glo assay, human CTPS1 enzyme inhibition. The class given is biochemical. The following applies: wild-type human CTPS1, 25 nM enzyme; ADP-Glo; read-out: ADP-Glo_WT_hCTPS1—25 nM_IC50 (IC50). Summed up:
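ADP-Glo luminescence quantified ADP produced by 25 nM purified human CTPS1 (full length, FLAG-His tagged) at 25° C within the linear phase. Final substrates: ATP 120 μM, UTP 160 μM, GTP 60 μM, L-glutamine 100 μM; 1% DMSO; pH 7.4 HEPES buffer with Mg2+, KCl, DTT. Compound pre-incubated with enzyme 10 min, then with ATP/UTP 10 min.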

Consider `CCOc1cncc(-c2cnc(C(=O)N[C@@H](c3cc(NS(=O)(=O)C4CC4)ccn3)[C@@H]3CCN(CCF)C3)s2)n1` [I-109, N-((R)-(4-(cyclopropanesulfonamido)pyridin-2-yl)((R)-1-(2-fluoroethyl)pyrrolidin-3-yl)methyl)-5-(6-ethoxypyrazin-2-yl)thiazole-2-carboxamide], for which the IC50 lay in the range of 5 to 25 nM.
For `CCOc1cncc(-c2cnc(C(=O)N[C@@H](c3cc(NS(=O)(=O)C4CC4)ccn3)[C@H]3CCN(CCF)C3)s2)n1` [I-110, N-((R)-(4-(cyclopropanesulfonamido)pyridin-2-yl)((S)-1-(2-fluoroethyl)pyrrolidin-3-yl)methyl)-5-(6-ethoxypyrazin-2-yl)thiazole-2-carboxamide] the value was at most 5 nM; for `CCOc1cncc(-c2cnc(C(=O)N[C@H](c3cc(NS(=O)(=O)C4CC4)ccn3)[C@H]3CCN(C4CC4)C3)s2)n1` [I-112, N-((S)-(4-(cyclopropanesulfonamido)pyridin-2-yl)((S)-1-cyclopropylpyrrolidin-3-yl)methyl)-5-(6-ethoxypyrazin-2-yl)thiazole-2-carboxamide], 5 to 25 nM.
As to `CCOc1cncc(-c2cnc(C(=O)N[C@H](c3cc(NS(=O)(=O)C4CC4)ccn3)[C@@H]3CCN(C4CC4)C3)s2)n1` [I-113, N-((S)-(4-(cyclopropanesulfonamido)pyridin-2-yl)((R)-1-cyclopropylpyrrolidin-3-yl)methyl)-5-(6-ethoxypyrazin-2-yl)thiazole-2-carboxamide], the IC50 lay in the range of 5 to 25 nM.
As for `CCOc1cncc(-c2cnc(C(=O)N[C@@H](c3cc(NS(=O)(=O)C4CC4)ccn3)[C@@H]3CCN(C4CC4)C3)s2)n1` [I-114, N-((R)-(4-(cyclopropanesulfonamido)pyridin-2-yl)((R)-1-cyclopropylpyrrolidin-3-yl)methyl)-5-(6-ethoxypyrazin-2-yl)thiazole-2-carboxamide], the figure is 5 to 25 nM; as for `CCOc1cncc(-c2cnc(C(=O)N[C@H](c3cc(NS(=O)(=O)C4CC4)ccn3)[C@@H]3CCCN3C)s2)n1` [I-115, N-((S)-(4-(cyclopropanesulfonamido)pyridin-2-yl)((S)-1-methylpyrrolidin-2-yl)methyl)-5-(6-ethoxypyrazin-2-yl)thiazole-2-carboxamide], 50 to 100 nM.
Take `CCOc1cncc(-c2cnc(C(=O)N[C@H](c3cc(NS(=O)(=O)C4CC4)ccn3)[C@H]3CCCN3C)s2)n1` [I-116, N-((S)-(4-(cyclopropanesulfonamido)pyridin-2-yl)((R)-1-methylpyrrolidin-2-yl)methyl)-5-(6-ethoxypyrazin-2-yl)thiazole-2-carboxamide]: the half-maximal inhibitory concentration (IC50) lay in the range of 25 to 50 nM.
For the compound `CCOc1cncc(-c2cnc(C(=O)N[C@@H](c3cc(NS(=O)(=O)C4CC4)ccn3)[C@@H]3CCCN3C)s2)n1` [I-117, N-((R)-(4-(cyclopropanesulfonamido)pyridin-2-yl)((S)-1-methylpyrrolidin-2-yl)methyl)-5-(6-ethoxypyrazin-2-yl)thiazole-2-carboxamide], the 50% inhibitory concentration (IC50) lay in the range of 5 to 25 nM.
As for `CCOc1cncc(-c2cnc(C(=O)N[C@@H](c3cc(NS(=O)(=O)C4CC4)ccn3)[C@H]3CCCN3C)s2)n1` [I-118, N-((R)-(4-(cyclopropanesulfonamido)pyridin-2-yl)((R)-1-methylpyrrolidin-2-yl)methyl)-5-(6-ethoxypyrazin-2-yl)thiazole-2-carboxamide], the figure is 5 to 25 nM.
As for `CCOc1cncc(-c2cnc(C(=O)N[C@H](c3cc(NS(=O)(=O)C4CC4)ccn3)[C@@H]3CC(=O)N(C)C3)s2)n1` [I-119, N-((S)-(4-(cyclopropanesulfonamido)pyridin-2-yl)((R)-1-methyl-5-oxopyrrolidin-3-yl)methyl)-5-(6-ethoxypyrazin-2-yl)thiazole-2-carboxamide], the figure is 25 to 50 nM.
For `CCOc1cncc(-c2cnc(C(=O)N[C@H](c3cc(NS(=O)(=O)C4CC4)ccn3)[C@H]3CC(=O)N(C)C3)s2)n1` [I-120, N-((S)-(4-(cyclopropanesulfonamido)pyridin-2-yl)((S)-1-methyl-5-oxopyrrolidin-3-yl)methyl)-5-(6-ethoxypyrazin-2-yl)thiazole-2-carboxamide] the value was 25 to 50 nM; for `CCOc1cncc(-c2cnc(C(=O)N[C@@H](c3cc(NS(=O)(=O)C4CC4)ccn3)[C@@H]3CC(=O)N(C)C3)s2)n1` [I-121, N-((R)-(4-(cyclopropanesulfonamido)pyridin-2-yl)((R)-1-methyl-5-oxopyrrolidin-3-yl)methyl)-5-(6-ethoxypyrazin-2-yl)thiazole-2-carboxamide], 5 to 25 nM.
For `CCOc1cncc(-c2cnc(C(=O)N[C@@H](c3cc(NS(=O)(=O)C4CC4)ccn3)[C@H]3CC(=O)N(C)C3)s2)n1` [I-122, N-((R)-(4-(cyclopropanesulfonamido)pyridin-2-yl)((S)-1-methyl-5-oxopyrrolidin-3-yl)methyl)-5-(6-ethoxypyrazin-2-yl)thiazole-2-carboxamide], the half-maximal inhibitory concentration (IC50) is 5 to 25 nM.
As for `CCOc1cncc(-c2cnc(C(=O)N[C@@H](CN3C[C@H]4CC[C@@H]3CO4)c3cc(NS(=O)(=O)C4CC4)ccn3)s2)n1` [I-123, N-((S)-2-((1R,4R)-2-oxa-5-azabicyclo[2.2.2]octan-5-yl)-1-(4-(cyclopropanesulfonamido)pyridin-2-yl)ethyl)-5-(6-ethoxypyrazin-2-yl)thiazole-2-carboxamide], the figure is 50 to 100 nM; as for `CCOc1cncc(-c2cnc(C(=O)N[C@H](CN3C[C@H]4CC[C@@H]3CO4)c3cc(NS(=O)(=O)C4CC4)ccn3)s2)n1` [I-124, N-((R)-2-((1R,4R)-2-oxa-5-azabicyclo[2.2.2]octan-5-yl)-1-(4-(cyclopropanesulfonamido)pyridin-2-yl)ethyl)-5-(6-ethoxypyrazin-2-yl)thiazole-2-carboxamide], 25 to 50 nM; as for `CCOc1cncc(-c2cnc(C(=O)N[C@@H](CN3CC[C@@]4(CCOC4)C3)c3cc(NS(=O)(=O)C4CC4)ccn3)s2)n1` [I-125, N-((S)-1-(4-(cyclopropanesulfonamido)pyridin-2-yl)-2-((R)-2-oxa-7-azaspiro[4.4]nonan-7-yl)ethyl)-5-(6-ethoxypyrazin-2-yl)thiazole-2-carboxamide], 25 to 50 nM.
For `CCOc1cncc(-c2cnc(C(=O)N[C@H](CN3CC[C@@]4(CCOC4)C3)c3cc(NS(=O)(=O)C4CC4)ccn3)s2)n1` [I-126, N-((R)-1-(4-(cyclopropanesulfonamido)pyridin-2-yl)-2-((R)-2-oxa-7-azaspiro[4.4]nonan-7-yl)ethyl)-5-(6-ethoxypyrazin-2-yl)thiazole-2-carboxamide] the value was 5 to 25 nM; for `CCOc1cncc(-c2cnc(C(=O)N[C@@H](CN3CC[C@]4(CCOC4)C3)c3cc(NS(=O)(=O)C4CC4)ccn3)s2)n1` [I-127, N-((S)-1-(4-(cyclopropanesulfonamido)pyridin-2-yl)-2-((S)-2-oxa-7-azaspiro[4.4]nonan-7-yl)ethyl)-5-(6-ethoxypyrazin-2-yl)thiazole-2-carboxamide], 5 to 25 nM; for `CCOc1cncc(-c2cnc(C(=O)N[C@@H](CN3CC[C@@](C)(O)C3)c3cc(NS(=O)(=O)C4CC4)ccn3)s2)n1` [I-129, N-((S)-1-(4-(cyclopropanesulfonamido)pyridin-2-yl)-2-((R)-3-hydroxy-3-methylpyrrolidin-1-yl)ethyl)-5-(6-ethoxypyrazin-2-yl)thiazole-2-carboxamide], 50 to 100 nM.
For `CCOc1cncc(-c2cnc(C(=O)N[C@@H](CN3CC[C@](C)(O)C3)c3cc(NS(=O)(=O)C4CC4)ccn3)s2)n1` [I-130, N-((S)-1-(4-(cyclopropanesulfonamido)pyridin-2-yl)-2-((S)-3-hydroxy-3-methylpyrrolidin-1-yl)ethyl)-5-(6-ethoxypyrazin-2-yl)thiazole-2-carboxamide] the value was 5 to 25 nM.
In the case of `CCOc1cncc(-c2cnc(C(=O)N[C@H](CN3CC[C@](C)(O)C3)c3cc(NS(=O)(=O)C4CC4)ccn3)s2)n1` [I-131, N-((R)-1-(4-(cyclopropanesulfonamido)pyridin-2-yl)-2-((S)-3-hydroxy-3-methylpyrrolidin-1-yl)ethyl)-5-(6-ethoxypyrazin-2-yl)thiazole-2-carboxamide], the half-inhibitory concentration (IC50) was in the range of 5 to 25 nM.
For `CCOc1cncc(-c2cnc(C(=O)N[C@H](CN3CC[C@@](C)(O)C3)c3cc(NS(=O)(=O)C4CC4)ccn3)s2)n1` [I-132, N-((R)-1-(4-(cyclopropanesulfonamido)pyridin-2-yl)-2-((R)-3-hydroxy-3-methylpyrrolidin-1-yl)ethyl)-5-(6-ethoxypyrazin-2-yl)thiazole-2-carboxamide] the value was 5 to 25 nM; for `CCOc1cncc(-c2cnc(C(=O)N[C@@H](CN3CCCOCC3)c3cc(NS(=O)(=O)C4CC4)ccn3)s2)n1` [I-134, (S)-N-(1-(4-(cyclopropanesulfonamido)pyridin-2-yl)-2-(1,4-oxazepan-4-yl)ethyl)-5-(6-ethoxypyrazin-2-yl)thiazole-2-carboxamide], 5 to 25 nM.

The values above are taken from patent US20250270200A1, “CTPS1 INHIBITORS AND USES THEREOF” (Nimbus Clotho, Inc., priority 2022, published 2025).
